The target of experiment [1] is T1, CA I (Homo sapiens, UniProt P00915).
T1 construct: gene CA1; recombinant
The experiment can be described thus: stopped-flow CO2 hydrase assay. The settings on record: read-out: KI (μM)^a^,^b / CA I. The experiment is classed as biochemical. The text has this: stopped-flow CO2 hydrase assay on CA I

The target in experiment [2] is T2, CA II (Homo sapiens, UniProt P00918).
T2 construct: gene CA2; recombinant
In words: stopped-flow CO2 hydrase assay. The experiment is classed as biochemical. Conditions: read-out: KI (μM)^a^,^b / CA I. The text has this: stopped-flow CO2 hydrase assay on CA II

Experiment [3] deals with T1, CA I. In words: biochemical. Also noted: stopped-flow CO2 hydration assay of recombinant human CA isoforms, inhibition constant. Conditions: 6 h incubation. On the procedure:
(§1) The CA-catalysed CO2 hydration activity was assayed by using an applied photophysics stopped-flow apparatus as reported in previous papers from our group. All CA isoforms were recombinant proteins, obtained as reported earlier. The newly synthesised compounds 7–10 were investigated for their CA inhibition activity against four pharmacologically relevant human CA isoforms—the ubiquitous cytosolic CA I and II as well as the cancer-associated CA IX and XII. In this study, CA I and CA II are considered off-target isoforms, that were tested in order to explore the selectivity of inhibitors towards the CA IX and CA XII isoforms. The clinically utilised acetazolamide (AAZ) was used as a reference drug. The following structure-activity relationship (SAR) can be deduced from the inhibition data reported in Table 1: It is worthwhile to underline here that a 6-h incubation of the enzyme and each compound 7–10 solutions is essential. When the incubation period of 15 min was used for assaying the inhibition, as generally done for the other types of CA inhibitors, only a weak inhibition was observed (data not shown). Furthermore, it appears to be the case with coumarins and related bioisosteres. […]

In experiment [4] the target is T2, CA II. The experiment can be described thus: biochemical. Also noted: stopped-flow CO2 hydration assay of recombinant human CA isoforms, inhibition constant. The settings on record: 6 h incubation. As for the experimental part: as §1

Bounds are passed on as bounds.

T1 sequence (P00915 2-261): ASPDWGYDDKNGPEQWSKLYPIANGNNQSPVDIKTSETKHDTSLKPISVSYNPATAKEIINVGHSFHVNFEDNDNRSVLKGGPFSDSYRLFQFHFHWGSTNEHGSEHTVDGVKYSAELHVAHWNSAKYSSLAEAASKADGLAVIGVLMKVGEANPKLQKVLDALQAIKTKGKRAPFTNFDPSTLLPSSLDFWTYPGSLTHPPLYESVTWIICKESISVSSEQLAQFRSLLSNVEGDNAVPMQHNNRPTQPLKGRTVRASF

On to `O=P1(O)CC=Cc2ccc(-c3ccc(Cl)cc3)cc2O1` [9d, 8–(4-Chlorophenyl)-2-hydroxy-3H-benzo[f][1,2]oxaphosphepine 2-oxide], for which the Ki in experiment [1] and in experiment [2] was more than 100 µM in each case.
For the molecule `COc1ccc(-c2ccc3c(c2)C=CCP(=O)(O)O3)cc1` [8b, 2-Hydroxy-7–(4-methoxyphenyl)-3H-benzo[f][1,2]oxaphosphepine 2-oxide], the Ki in experiment [1] and in experiment [2] was more than 100 µM each time.
`O=P1(O)CC=Cc2cc(-c3ccc(C(F)(F)F)cc3)ccc2O1` [8f, 2-Hydroxy-7–(4-(trifluoromethyl)phenyl)-3H-benzo[f][1,2]oxaphosphepine 2-oxide]: the Ki in experiment [1] and in experiment [2] was more than 100 µM each time.
As to `O=P1(O)CC=Cc2cc(-c3cccc(F)c3)ccc2O1` [8h, 7-(3-Fluorophenyl)-2-hydroxy-3H-benzo[f][1,2]oxaphosphepine 2-oxide], the Ki in experiment [3] and in experiment [4] was more than 100 µM each time.
Regarding `O=P1(O)CC=Cc2cc(-c3ccc(Cl)cc3)ccc2O1` [8e, 7–(4-Chlorophenyl)-2-hydroxy-3H-benzo[f][1,2]oxaphosphepine 2-oxide], the Ki in experiment [1] and in experiment [2] was more than 100 µM each time.
As to `O=P1(O)CC=Cc2cc(-c3ccccc3)ccc2O1` [8a, 2-Hydroxy-7-phenyl-3H-benzo[f][1,2]oxaphosphepine 2-oxide], the Ki in experiment [1] and in experiment [2] was more than 100 µM in each case.
Consider `CCOC(=O)c1ccc(-c2ccc3c(c2)C=CCP(=O)(O)O3)cc1` [8c, Ethyl 4–(2-hydroxy-2-oxido-3H-benzo[f][1,2]oxaphosphepin-7-yl)benzoate], for which the Ki in experiment [1] and in experiment [2] was more than 100 µM throughout.
Turning to `O=P1(O)CC=Cc2cc(-c3cc(Cl)cc(Cl)c3)ccc2O1` [8g, 7–(3,5-Dichlorophenyl)-2-hydroxy-3H-benzo[f][1,2]oxaphosphepine 2-oxide], the Ki in experiment [1] and in experiment [2] was more than 100 µM in each case.
`O=P1(O)CC=Cc2cccc(-c3ccc(Cl)cc3)c2O1` [10d, 9–(4-Chlorophenyl)-2-hydroxy-3H-benzo[f][1,2]oxaphosphepine 2-oxide]: the Ki in experiment [1] and in experiment [2] was more than 100 µM each time.
Regarding `CCOC(=O)c1ccc(-c2cccc3c2OP(=O)(O)CC=C3)cc1` [10c, Ethyl 4–(2-hydroxy-2-oxido-3H-benzo[f][1,2]oxaphosphepin-9-yl)benzoate], the Ki in experiment [1] and in experiment [2] was more than 100 µM throughout.
As for “2-Hydroxy-7-(o-tolyl)-3H-benzo[f][1,2]oxaphosphepine 2-oxide [8i]”, the Ki in experiment [1] ([…] h incubation) and in experiment [2] ([…] h incubation) was more than 100 µM each time.
In the case of `O=[N+]([O-])c1cccc(-c2ccc3c(c2)C=CCP(=O)(O)O3)c1` [8k, 2-Hydroxy-7–(3-nitrophenyl)-3H-benzo[f][1,2]oxaphosphepine 2-oxide], the Ki in experiment [1] and in experiment [2] was more than 100 µM throughout.
For `O=[N+]([O-])c1ccccc1-c1ccc2c(c1)OP(=O)(O)CC=C2` [9f, 2-Hydroxy-8–(2-nitrophenyl)-3H-benzo[f][1,2]oxaphosphepine 2-oxide], the Ki in experiment [1] and in experiment [2] was more than 100 µM in each case.
Regarding `COc1ccc(-c2cccc3c2OP(=O)(O)CC=C3)cc1` [10b, 2-Hydroxy-9–(4-methoxyphenyl)-3H-benzo[f][1,2]oxaphosphepine 2-oxide], the Ki in experiment [1] and in experiment [2] was more than 100 µM in each case.
`CCOC(=O)c1ccc(-c2ccc3c(c2)OP(=O)(O)CC=C3)cc1` [9c, Ethyl 4–(2-hydroxy-2-oxido-3H-benzo[f][1,2]oxaphosphepin-8-yl)benzoate]: the Ki in experiment [1] and in experiment [2] was more than 100 µM throughout.
Turning to `O=P1(O)CC=Cc2cccc(-c3ccccc3)c2O1` [10a, 2-Hydroxy-9-phenyl-3H-benzo[f][1,2]oxaphosphepine 2-oxide], the Ki in experiment [1] and in experiment [2] was more than 100 µM each time.
As for “7–(3-Fluorophenyl)-2-hydroxy-3H-benzo[f][1,2]oxaphosphepine 2-oxide [8h]”, the Ki in experiment [1] (6 h incubation) and in experiment [2] (6 h incubation) was more than 100 µM in each case.
Take `O=P1(O)CC=Cc2cc(-c3ccc(F)cc3)ccc2O1` [8d, 7–(4-Fluorophenyl)-2-hydroxy-3H-benzo[f][1,2]oxaphosphepine 2-oxide]: the Ki in experiment [1] and in experiment [2] was more than 100 µM each time.
In the case of `O=P1(O)CC=Cc2ccc(Br)cc2O1` [7b, 8-Bromo-2-hydroxy-3H-benzo[f][1,2]oxaphosphepine 2-oxide], the Ki in experiment [1] and in experiment [2] was more than 100 µM throughout.
Take `O=P1(O)CC=Cc2cccc(-c3cc(Cl)cc(Cl)c3)c2O1` [10e, 9–(3,5-Dichlorophenyl)-2-hydroxy-3H-benzo[f][1,2]oxaphosphepine 2-oxide]: the Ki in experiment [1] and in experiment [2] was more than 100 µM throughout.
`COc1ccc(-c2ccc3c(c2)OP(=O)(O)CC=C3)cc1` [9b, 2-Hydroxy-8–(4-methoxyphenyl)-3H-benzo[f][1,2]oxaphosphepine 2-oxide]: the Ki in experiment [1] and in experiment [2] was more than 100 µM in each case.
`O=P1(O)CC=Cc2ccc(-c3cc(Cl)cc(Cl)c3)cc2O1` [9e, 8–(3,5-Dichlorophenyl)-2-hydroxy-3H-benzo[f][1,2]oxaphosphepine 2-oxide]: the Ki in experiment [1] and in experiment [2] was more than 100 µM throughout.
With `CC(C)(C)c1ccc(-c2ccc3c(c2)C=CCP(=O)(O)O3)cc1` [8l, 7–(4-(tert-Butyl)phenyl)-2-hydroxy-3H-benzo[f][1,2]oxaphosphepine 2-oxide], the Ki in experiment [1] and in experiment [2] was more than 100 µM in each case.
Turning to `O=P1(O)CC=Cc2ccc(-c3ccccc3)cc2O1` [9a, 2-Hydroxy-8-phenyl-3H-benzo[f][1,2]oxaphosphepine 2-oxide], the Ki in experiment [1] and in experiment [2] was more than 100 µM throughout.
As to `O=[N+]([O-])c1ccccc1-c1cccc2c1OP(=O)(O)CC=C2` [10f, 2-Hydroxy-9–(2-nitrophenyl)-3H-benzo[f][1,2]oxaphosphepine 2-oxide], the Ki in experiment [1] and in experiment [2] was more than 100 µM throughout.
As to `COC(=O)c1cccc(-c2ccc3c(c2)C=CCP(=O)(O)O3)c1` [8j, Methyl 3–(2-hydroxy-2-oxido-3H-benzo[f][1,2]oxaphosphepin-7-yl)benzoate], the Ki in experiment [1] and in experiment [2] was more than 100 µM in each case.

The values are drawn from article PMC10478600, “Aryl derivatives of 3H-1,2-benzoxaphosphepine 2-oxides as inhibitors of cancer-related carbonic anhydrase isoforms IX and XII” (Journal of Enzyme Inhibition and Medicinal Chemistry, 2023).
